This is an account of results in US11447533B2, “Antimicrobial and anticancer peptides and conjugates and compositions, methods, articles and kits relating thereto” (George Mason Research Foundation, Inc., priority 2018, dated 2022).

Experiment [1] can be described thus: Endotoxin binding: competitive displacement of BODIPY TR-Cadaverine from LPS. Particulars: 5 μM peptide, 10 μM BC, 10 μg/mL LPS, low ionic-strength 10 mM Na-PO4. Also noted: species or system Escherichia coli. The procedure:
FIGS. 2A-2B are graphs showing endotoxin binding. The figures depict the competitive displacement of BC from LPS/LTA by the peptides. 5 μM of each peptide was incubated with 10 μM BC and 10 μg/mL LPS from E. coli (0111:B4) or LTA from S. aureus. Fluorescence intensity was measured at excitation=580 nm and emission=620 nm. 10 μM BC without endotoxin was used as 100% displacement while 10 μM BC with 10 μg/mL LPS/LTA without any peptide as 0% displacement and the % displacement of BC by each peptide was calculated accordingly. […] had been used as a positive control. The horizontal dotted line coincides with the % displacement of BC by ATRA1 on the y-axis.
FIGS. 6A-6B are graphs showing endotoxin (LPS (FIG. 6A) and LTA (FIG. 6B)) binding. Competitive displacement of BC from LPS/LTA. In each case, 5 μM peptide was incubated with 10 μM BC and 10 μg/mL LPS from E. coli (0111:B4) or LTA from S. aureus. Fluorescence intensity was measured using excitation=580 nm and emission=620 nm. As a positive control 10 μM BC without endotoxin was used as a reference for 100% displacement while 10 μM BC with 10 μg/mL LPS/LTA without any peptide as a negative control and a reference for 0% displacement. These controls were used to calculate % BC displacement for each peptide.
Endotoxin Binding. The binding of endotoxin (LPS/LTA) was evaluated using a fluorogenic conjugateBODIPY TR-Cadaverine (BC). BC binds endotoxin loses its fluorescence. The peptide competitively displaces BC from endotoxin and the fluorescence is reestablished. Competitive inhibition of endotoxin-BC binding was utilized due to presence of peptides already in complexion with endotoxin. 25 μL of 20 μM of peptides in 10 mM Na—PO4 buffer were incubated with 25 μL of LPS (40 μg/mL) or LTA (40 μg/mL) for 15 min and then added with 50 μL of BC (20 uM). Peptides bind to LPS or LTA and competitively prevents BC bind to the endotoxin. BC loses its fluorescence on binding to endotoxin. The fluorescence intensity of the unbound BC was measured at excitation=580 nm and emission=620 nm.
BC contains two functional moieties: BODIPY (boron-dipyrromethene) and cadaverine connected via a carboxamide. BODIPY is the fluorophore of BC and fluoresces in the free state in solution but loses fluorescence when bound to LPS/LTA. The competitive displacement of BC from LPS/LTA by AMPs and thus regeneration of the fluorescence has frequently been used to estimate the binding strength of AMPs with LPS/LTA. In the present studies, 5 μM of each peptide was used to displace BC from LPS/LTA. […] Such observation contradicts the initial assumption that substitution of Lys with arginine would result in increased efficiency of LPS binding. However, with sequential substitutions of Lys with arginine, starting with ATRA1-AR, peptide variants show increased LPS binding with each additional arginine substitution. In terms of LPS binding: ATRA1-AR<ATRA1-AR2<ATRA1-AR3. In ATRA1-R3, the lysine residues at 9th, 5th and 1st positions of ATRA1 were substituted with arginine. In ATRA1-R6 all of the lysine residues were replaced with arginine.

For experiment [2], the system named is E. coli ATCC 25922. The experiment can be described thus: Antimicrobial efficacy (resazurin virtual colony count). In kind it is cell-based, Escherichia coli. Particulars: pH 7.4. The protocol: Antimicrobial Studies. The phosphate buffers used for antimicrobial assays were supplemented with non-nitrogenous energy source, 0.1% (w/v) glucose. To conduct antimicrobial assays, bacterial strains were first suspended in respective buffers. E. coli (ATCC 25922) and B. cereus (ATCC 11778) were grown in MHB II up to OD600 nm˜1 and stored as frozen stock in 20% glycerol at −80° C. Occasionally they were thawed and enumerated by serial dilution and spreading on MHB II agar plates. The concentrations of the frozen stocks of E. coli and B. cereus strains were 1.0-1.1*10^8 CFU/mL with OD600 nm˜0.8. In case of other bacterial strains, they were grown on the days of experiment up to OD600 nm˜1-1.5 and then adjusted to OD600 nm˜0.8. The growth media of the drug-resistant bacterial strains were supplemented with few of the respective antibiotics against which they are resistant. 200 μL of the 0.8 OD600 nm culture were added to 10 mL of the respective buffer to obtain a suspension which was used to incubate with equal volumes of peptide solution in the same buffer.
Antimicrobial assays in different phosphate buffers and serum were conducted by adapting, with necessary modifications a fast high-throughput method based on Virtual Colony Count technique and later modified by incorporating the use of resazurin. At first serial dilution of a microbial strain in respective buffer was poured in the wells of 96 well polypropylene microplate and was then added with same volume of 2× MHB II supplemented with 80 μg/mL resazurin and incubated at 35° C. in a Gemini EM Microplate Reader (Molecular Devices) overnight with intermittent shaking. As the microbe grows it reduces non-fluorescent resazurin to fluorescent resorufin and the fluorescent intensity of each well were measured (excitation=570 nm, emission=590 nm) each 5 min for 15 hours. The time (t, min) to reach a certain fluorescence (RFU=20000 with respect to the starting fluorescence) was correlated with the initial bacterial concentration (in CFU/mL) in the particular well to obtain a calibration plot of the form: Log([Bacteria],CFU/mL)=b+m*t Equation 4: […]
To obtain antimicrobial efficacy of the peptides, 50 μL of serially diluted peptide in a buffer was incubated with 50 μL microbial suspension in the same buffer for 3 hours in black polypropylene 96 well plate. After incubation the wells were added with 100 μL of 2× MHB II supplemented with 80 μg/mL resazurin and then incubated with continuous fluorescence reading for overnight time period as described earlier. The surviving microbial population (CFU/mL) in each well were calculated by first finding the time to reach a fluorescence of RFU=20000 and the correlation (4) for the specific microbial strain and buffer. % Survival represents the proportion of viable cells in peptide treated cells relative to cells treated with the respective buffer alone. Equation 5: […]
Finally, the antimicrobial effectiveness of each peptide against the particular microbial strain in the specific buffer was determined by plotting % microbial survival as a function of the log of the concentration of the peptide and fitting the resulting data to a variable-slope sigmoidal regression model (equation 6). In this equation, log(EC50) represents the log of the concentration of the peptide required to kill half of the microbial population, where Smin and Smax correspond to the minimal and maximal microbial survival values (respectively), and H, Hill slope, is the parameter defining the steepness of the transition slopes of sigmoidal survival curves. % Microbial survival=Smin+(Smax−Smin)/(1+10^log(EC^50^)-log[peptide]*H) Equation 6: […]
The antimicrobial efficacies of the peptides were first tested against the model Gram-negative bacteria, E. coli ATCC 25922, in different phosphate buffers having varied ionic strengths and compositions. The phosphate buffers that were used included 10 mM sodium phosphate (calculated ionic strength˜25 mM), PBS and DPBS. […]
In general terms: Alamar Blue is a resazurin reagent that responds to reducing activity.

Experiment [3] has as its system E. coli ML35p outer membrane. Kind of experiment: Outer membrane disruption (β-lactamase leakage, nitrocefin). In kind it is cell-based, Escherichia coli. Particulars: DPBS. The procedure: (§1) Interactions with Bacterial Membranes. Interaction of the peptides with bacterial membranes in different phosphate buffers were evaluated using E. coli ML35p, constructed in our laboratory. At first, competent cells of E. coli ML35 were produced by conventional competent cell preparation method, then transformed with pBR322 plasmid. Transformed colonies were selected after growing on Luria-agar containing 50 μg/mL ampicillin. A single transformed colony was grown in presence of ampicillin first in Luria broth and then in MHBII and stored as 20% glycerol stock at −80° C. This frozen stock, on the day of the experiment, was thawed and grown in MHBII containing ampicillin up to OD600 nm=0.8-0.9, washed with PBS and then suspended in the respective buffer up to the required OD600 nm for use.
Membrane Disruptions. The outer and the inner membrane disruptions by the peptides were evaluated by incubating bacterial suspension with peptides and then measuring the activity of enzymes leaked out of the cells. 100 μL of 10× concentration of peptide in water was incubated with 900 μL bacterial suspension (OD600 nm˜0.1) in respective buffer for 3 hours at room temperature with gentle rotation. Then the cells and debris were separated by centrifugation (10000 r.p.m. for 30 mins) and the supernatant was collected and tested for activity of enzymes that had leaked out of the bacterial cells. HCMAB was used as a positive control to cause 100% membrane disruption and water as a negative causing 0% disruption.
The outer membrane disruption was tested by using the activity of beta-lactamase present in the periplasmic space of E. coli ML35p. Peptides when disrupt the outer membrane enough to cause beta-lactamase to come out, the degree of disruption can be measured by the virtue of the kinetics of the enzyme and using a chromogenic cephalosporin substrate called nitrocefin. β-lactamase mediated hydrolyzed product of nitrocefin has an absorbance αmax=486 nm. Supernatant collected from the incubation of peptide with bacteria was added with nitrocefin solution in DPBS and incubated at 35° C. and continuous absorbance readings. The slope of the linear section of the absorbance curve (absorbance vs time), was used as a measure of membrane disruption and the % Disruption was calculated as: Equation 7: […]
Some of the ATRA1-variants were further tested for their ability to disrupt outer and inner membranes to form pores or disruptions sufficiently large so as to allow enzymes to leak out of their cellular compartments (cytoplasm or periplasmic space). For this purpose, two reporter molecules were used with one being the substrate of a cytoplasmic enzyme and the other was a substrate for an enzyme residing in the periplasmic space. One of the reporters, nitrocefin was the substrate for β-lactamase, which is present in the bacterial periplasm, whereas the other molecule, ONPG, was the substrate for β-galactosidase, which resides in the cytoplasm of E. coli ML35p strain. […] Similarly, β-galactosidase activity in the supernatants is evidence of inner membrane disruption and possible pore formation. When the aforesaid supernatants were tested for nitrocefin and ONPG hydrolysis, the corresponding absorbance increased with time (data not shown) indicating β-lactamase and β-galactosidase activity, respectively, and thus disruption of both the inner and outer membranes. The slopes of the increase in absorbance as a function of time provides the rate of enzyme activity. The enzyme activities in supernatants collected after incubation of bacteria with the quaternary ammonium surfactant, hexadecyltrimethylammonium bromide (HCMAB) was used as an internal reference for 100% membrane disruption. Enzyme activity for supernatants collected for cells incubated in the absence of peptide provided a reference for 0% membrane disruption. Bee venom peptide melittin was used as a positive control. […]

In experiment [4] the test system is E. coli ML35p outer membrane. Kind of experiment: NPN assay, outer membrane perturbation. Particulars: DPBS; 25 μM peptide; 25 μM PMB = 100%. Type of experiment: cell-based, Escherichia coli. The procedure: as §1
NPN Assay. The outer membrane perturbation of bacteria was evaluated by incubating E. coli ML35p with peptides in presence of NPN. 100 mM NPN in acetone was supplemented proportionately to a bacterial suspension of OD600 nm˜0.5 to achieve a final concentration of 20 μM of NPN and the mixture was equilibrated for 30 mins. Then, 90 μL of the bacterial suspension containing 20 μM NPN was added with 10 μL of 250 μM peptide (10×) solution in water and scanned for fluorescence intensity (excitation=350 nm, emission=420 nm). The % Perturbation was calculated by considering PMB to be causing 100% Perturbation and water (without peptide) as 0% Perturbation. Each peptide was tested in triplicate in each of the three phosphate buffers used.
When peptides partition from the bulk aqueous environment to the cellular membranes, they may cause small defects in the membrane organization, a signature of adsorption of the peptides into the membranes. Such small defects are called membrane perturbations and can be evaluated by utilizing molecular probes. One such molecular probe is NPN, which is a hydrophobic molecule and is usually repelled to enter the hydrophobic interiors of the membrane by the polar headgroups of membrane-lipids. However, when small defects and gaps are caused during the adsorption of the peptides into the membranes, NPN can enter through those defects and in the hydrophobic environment of the membrane interior the molecule fluoresces, which can be measured for quantification of the extent of membrane-perturbation and peptide adsorption in the cellular membrane.

[5] abbreviates: PBS (high / physiologically relevant ionic strength).

For KRAKRFFKRLK (SEQ ID NO: 7) [ATRA1-AR2], in experiment [1], the “LPS binding (BC displacement), in words” value is “ATRA1-AR<ATRA1-AR2<ATRA1-AR3”. Further, the “antimicrobial efficacy, in words” value in experiment [2] (DPBS (with Ca++ and Mg++)) is “lose activity in DPBS”; in experiment [2] (setting [5]), “more potent than ATRA1-A”.
Take RRAKRFFKRLK (SEQ ID NO: 8) [ATRA1-AR3]: in experiment [1], the “LPS binding (BC displacement), in words” value was “ATRA1-AR<ATRA1-AR2<ATRA1-AR3”. Moreover, the “antimicrobial efficacy, in words” value in experiment [2] (DPBS (with Ca++ and Mg++)) is “lose activity in DPBS”; in experiment [2] (setting [5]), “greater effectiveness than both ATRA1-A and ATRA1”.
Take KRWKKWFKKWK (SEQ ID NO: 13) [ATRA1-W3]: in experiment [3], the “time to reach maximum signal for nitrocefin hydrolysis” value is on record as “approximately 30 mins”. The “membrane perturbation with respect to PMB” value in experiment [4] is “higher OM perturbation than ATRA1”.
